Source: US11826399B2, “Chlorotoxin agents and uses thereof” (Eisai Inc., priority 2017, dated 2023)

How the values were obtained:
[1] = Biodistribution after single Carboxylated CTX-Cryptophycin dose in NRP1 WT or KO PC-3 xenografts in SCID mice; assay type: in vivo, mouse; settings: single 0.6 mg/kg Carboxylated CTX-Cryptophycin IV
Procedure: Cells used were human prostate cancer cells, PC-3 (ATCC® CRL-1435™) engineered at WuXi AppTec to generate an isogenic pair of cell lines WT (PC-3-sg1-4 WT cells) and KO (PC-3-sg1-9 KO cells) for NRP1. Mice used were female, ˜6 week old, immune compromised NOD. SCID from Charles River laboratories. Identical experiments were performed side by side in the isogenic xenograft models. Drug administration was performed when tumor size reached ˜300 to 500 mm^3. A single dose of Carboxylated CTX-Cryptophycin at 0.6 mg/kg was administered (to mimic dose where differential efficacy was observed) intravenously in the following vehicle: 10% EtOH, 5% Tween80 and 85% saline. Animals were euthanized and whole blood (cardiac puncture) and tumor tissues harvested at predetermined time points from 5 min to 96 h post-dose (n=3 mice per time point). Blood samples were centrifuged to obtain plasma and subsequently stored at −20° C. or lower pending analysis. Tumors were harvested by removing the entire specimen from surrounding tissues. Specimens were immediately rinsed with normal saline solution, blotted dry, then weighed and stored at −20° C. or lower pending analysis. Tumor tissue was cryofractured using the Covaris Cryoprep System (Covaris, Inc.). Once pulverized, samples were lysed in 3:1 (v:w) 1×PBS containing 1× Halt™ Protease Inhibitor Cocktail and 1×EDTA solution (Thermo Scientific, Product No. 78430). Plasma and homogenized tissue samples were extracted via protein precipitation with 3:1 (v:v) methanol:acetonitrile 1:1 (v:v) containing 0.1% acetic acid. […] Pharmacokinetic (PK) parameters were calculated using non-compartmental analysis in C3PO (a proprietary Eisai compound database and pharmacokinetic analysis tool). Mean plasma and tissue concentrations were used to calculate mean PK parameters.

[2] = test system: PC-3 human prostate cancer cells; experiment: Co-administration of Cryptophycin Payload with CTX or iRGD in subcutaneous PC-3 xenograft model; assay type: in vivo, mouse; settings: Cryptophycin Payload alone at 0.4 mg/kg IV
Procedure: PC-3 human prostate cancer cells (ATCC CRL-1435) were grown in RPMI-1640 medium supplemented with 10% FBS. For inoculation, 2×10^6 PC-3 cancer cells were injected subcutaneously into mice near the right axillary area using a 27-gauge needle in a volume of 0.1 mL. Mice were immune-compromised NU/NU nude females, approximately 6 weeks old from Charles River Labs. Tumors were measured at least twice weekly using calipers and mice were randomized into treatment groups based on tumor size when the average tumor reached approximately 180 mm^3. All treatments were initiated 17 days after tumor inoculation. The experiment included a vehicle-treated group and drug-treated groups (n=5). […]
General health of the mice was monitored and mortality recorded daily. Tumor volume was assessed by caliper (Mitutoyo, Aurora, IL) measurements (mm) using the formula (1×w^2)/2=mm^3, where 1 and w refer to the larger and smaller perpendicular dimensions collected at each measurement. Tumor dimensions were recorded twice per week starting at the initiation of drug treatment. Body weights were recorded twice per week starting on the first day of treatment. Relative body weight was calculated as follows: Relative body weight=(body weight on day of measurement/body weight on first day of treatment). […] The mean±SEM for tumor volume and mean±SEM for relative body weight for each experimental group was calculated. […]

SMILES	Tumor AUC0-96 h of Cryptophycin Metabolite 1 ([1]; NRP1 KO tumors)	Tumor tmax of Cryptophycin Metabolite 1 ([1]; NRP1 KO tumors)	Tumor AUC0-96 h of Cryptophycin Metabolite 1 ([1]; NRP1 WT tumors)	Tumor tmax of Cryptophycin Metabolite 1 ([1]; NRP1 WT tumors)	Antitumor activity (tumor volume) [2]
COc1ccc(CC2NC(=O)C=CCC(C(C)C3OC3c3ccc(CN4CCN(CCC(C)(C)SC)CC4)cc3)OC(=O)C(CC(C)C)NC(=O)C(C)(C)CNC2=O)cc1Cl (centres unmarked) [Cryptophycin Metabolite 1]	385 pmol·h/g	24 h	1494 pmol·h/g	48 h	–
CCCCNC(=O)Cc1ccccc1SSC(C)(C)CCN1CCN(Cc2ccc(C3OC3C(C)C3CC=CC(=O)NC(Cc4ccc(OC)c(Cl)c4)C(=O)NCC(C)(C)C(=O)NC(CC(C)C)C(=O)O3)cc2)CC1 (centres unmarked) [Cryptophycin Payload]	–	–	–	–	significant antitumor activity
